These results are taken from patent US20120245137A1 (Zalicus Pharmaceuticals Ltd., priority 2009, published 2012).

Holding throughout (type): cell-based
Experiment [1] concerns the target human α1G T-type channels (Homo sapiens, UniProt O43497). Nature of the experiment: T-type calcium channel block, whole cell patch clamp, α1G. The note with it: HEK cells stably expressing human α1G; mainly non-inactivated protocol; values above 10,000 nM represented as 10000. The procedure, abridged:
(§1)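 Whole-cell T-type currents, stably transfected HEK 293 (human α1G/α1H), passage 4-20. Cmpd in external soln, 0.1-0.01% DMSO, local gravity perfusion after ~10 min rest. Two voltage protocols: non-inactivating (resting block), inactivation (voltage-dependent block).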

Experiment [2] has as its target human α1H T-type channels (Homo sapiens, UniProt O95180). Nature of the experiment: T-type calcium channel block, whole cell patch clamp, α1H. The note with it: HEK cells stably expressing human α1H; mainly non-inactivated protocol; values above 10,000 nM represented as 10000. The essentials:
as §1

Experiment [3] concerns the target N-type calcium channel subunits (α1B, α2δ, and β3a) (Homo sapiens, UniProt Q00975). Nature of the experiment: Block of Cav2.2 channel, whole cell voltage clamp, manual and PatchXpress. The note with it: Table 5; table follows Assay Example 3 (whole cell voltage clamp / PatchXpress); assay not given. The procedure, abridged:
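Percent block taken as current amplitude ratio with versus without compound, applied in rising doses; IC50 fitted where one cell received multiple doses. Protocol: 50 ms pulses to +20 mV at 0.067 Hz from […] or −90 mV holding; P/n leak subtraction, no junction-potential correction; manual and PatchXpress recordings.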

Chain of human α1G T-type channels (O43497 whole entry, the tested form may be a part): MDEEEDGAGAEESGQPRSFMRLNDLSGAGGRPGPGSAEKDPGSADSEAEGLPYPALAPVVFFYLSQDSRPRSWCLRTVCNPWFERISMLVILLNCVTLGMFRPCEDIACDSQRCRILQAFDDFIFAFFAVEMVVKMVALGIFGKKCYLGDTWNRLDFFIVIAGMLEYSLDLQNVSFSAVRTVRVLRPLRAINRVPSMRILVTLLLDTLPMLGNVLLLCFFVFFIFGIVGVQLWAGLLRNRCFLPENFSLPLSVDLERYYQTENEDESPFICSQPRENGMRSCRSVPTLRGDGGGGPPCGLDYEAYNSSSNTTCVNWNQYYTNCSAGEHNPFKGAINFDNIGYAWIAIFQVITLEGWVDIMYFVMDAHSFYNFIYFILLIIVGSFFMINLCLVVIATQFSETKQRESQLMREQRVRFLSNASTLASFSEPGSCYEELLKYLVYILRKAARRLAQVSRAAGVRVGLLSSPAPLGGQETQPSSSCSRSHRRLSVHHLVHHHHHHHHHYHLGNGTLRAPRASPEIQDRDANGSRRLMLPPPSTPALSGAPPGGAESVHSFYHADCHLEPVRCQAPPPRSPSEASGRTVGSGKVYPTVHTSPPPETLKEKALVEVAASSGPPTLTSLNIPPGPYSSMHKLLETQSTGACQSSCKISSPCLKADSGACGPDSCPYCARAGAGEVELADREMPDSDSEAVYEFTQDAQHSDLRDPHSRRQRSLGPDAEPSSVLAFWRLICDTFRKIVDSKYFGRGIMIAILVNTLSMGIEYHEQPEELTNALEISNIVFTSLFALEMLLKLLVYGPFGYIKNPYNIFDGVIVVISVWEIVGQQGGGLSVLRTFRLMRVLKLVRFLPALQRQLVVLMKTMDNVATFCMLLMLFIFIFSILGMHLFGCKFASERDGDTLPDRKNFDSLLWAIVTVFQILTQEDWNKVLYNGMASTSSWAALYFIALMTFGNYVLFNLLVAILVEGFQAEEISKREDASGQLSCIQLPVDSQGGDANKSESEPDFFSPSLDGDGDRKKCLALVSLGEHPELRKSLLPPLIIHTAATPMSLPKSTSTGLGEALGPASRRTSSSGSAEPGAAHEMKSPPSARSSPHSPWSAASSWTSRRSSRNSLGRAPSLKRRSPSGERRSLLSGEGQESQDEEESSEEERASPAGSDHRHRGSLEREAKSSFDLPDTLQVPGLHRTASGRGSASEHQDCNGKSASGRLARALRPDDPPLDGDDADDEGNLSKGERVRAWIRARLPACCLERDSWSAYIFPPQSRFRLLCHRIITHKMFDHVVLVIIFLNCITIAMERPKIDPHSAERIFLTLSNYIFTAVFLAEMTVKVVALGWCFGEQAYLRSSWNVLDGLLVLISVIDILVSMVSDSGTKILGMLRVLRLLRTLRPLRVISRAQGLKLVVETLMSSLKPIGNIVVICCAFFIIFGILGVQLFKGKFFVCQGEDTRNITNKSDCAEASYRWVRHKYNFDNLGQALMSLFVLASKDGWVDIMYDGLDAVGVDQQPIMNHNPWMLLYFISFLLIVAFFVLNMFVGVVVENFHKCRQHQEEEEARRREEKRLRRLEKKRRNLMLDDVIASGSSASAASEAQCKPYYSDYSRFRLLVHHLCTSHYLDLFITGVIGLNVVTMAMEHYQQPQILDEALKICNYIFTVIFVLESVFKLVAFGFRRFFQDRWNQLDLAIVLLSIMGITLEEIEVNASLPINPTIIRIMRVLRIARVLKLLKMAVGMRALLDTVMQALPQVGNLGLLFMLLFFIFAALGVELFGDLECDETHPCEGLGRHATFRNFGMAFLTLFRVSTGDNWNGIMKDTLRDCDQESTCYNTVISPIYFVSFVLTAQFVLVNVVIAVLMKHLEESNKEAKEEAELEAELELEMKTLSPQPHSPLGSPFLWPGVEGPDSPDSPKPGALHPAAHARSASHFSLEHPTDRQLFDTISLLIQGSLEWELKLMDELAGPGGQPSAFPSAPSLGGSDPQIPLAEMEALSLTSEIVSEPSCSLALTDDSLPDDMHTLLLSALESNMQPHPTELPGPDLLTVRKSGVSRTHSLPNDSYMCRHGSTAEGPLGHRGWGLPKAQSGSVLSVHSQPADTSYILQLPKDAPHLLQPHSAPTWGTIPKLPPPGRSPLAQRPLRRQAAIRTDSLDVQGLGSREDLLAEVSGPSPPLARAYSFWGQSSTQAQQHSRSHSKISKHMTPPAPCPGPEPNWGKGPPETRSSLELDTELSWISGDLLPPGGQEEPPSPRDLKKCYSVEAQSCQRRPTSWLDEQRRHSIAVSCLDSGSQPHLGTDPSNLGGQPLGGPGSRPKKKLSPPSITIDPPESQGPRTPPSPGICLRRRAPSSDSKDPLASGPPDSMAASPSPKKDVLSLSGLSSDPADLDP
Chain of human α1H T-type channels (O95180 whole entry): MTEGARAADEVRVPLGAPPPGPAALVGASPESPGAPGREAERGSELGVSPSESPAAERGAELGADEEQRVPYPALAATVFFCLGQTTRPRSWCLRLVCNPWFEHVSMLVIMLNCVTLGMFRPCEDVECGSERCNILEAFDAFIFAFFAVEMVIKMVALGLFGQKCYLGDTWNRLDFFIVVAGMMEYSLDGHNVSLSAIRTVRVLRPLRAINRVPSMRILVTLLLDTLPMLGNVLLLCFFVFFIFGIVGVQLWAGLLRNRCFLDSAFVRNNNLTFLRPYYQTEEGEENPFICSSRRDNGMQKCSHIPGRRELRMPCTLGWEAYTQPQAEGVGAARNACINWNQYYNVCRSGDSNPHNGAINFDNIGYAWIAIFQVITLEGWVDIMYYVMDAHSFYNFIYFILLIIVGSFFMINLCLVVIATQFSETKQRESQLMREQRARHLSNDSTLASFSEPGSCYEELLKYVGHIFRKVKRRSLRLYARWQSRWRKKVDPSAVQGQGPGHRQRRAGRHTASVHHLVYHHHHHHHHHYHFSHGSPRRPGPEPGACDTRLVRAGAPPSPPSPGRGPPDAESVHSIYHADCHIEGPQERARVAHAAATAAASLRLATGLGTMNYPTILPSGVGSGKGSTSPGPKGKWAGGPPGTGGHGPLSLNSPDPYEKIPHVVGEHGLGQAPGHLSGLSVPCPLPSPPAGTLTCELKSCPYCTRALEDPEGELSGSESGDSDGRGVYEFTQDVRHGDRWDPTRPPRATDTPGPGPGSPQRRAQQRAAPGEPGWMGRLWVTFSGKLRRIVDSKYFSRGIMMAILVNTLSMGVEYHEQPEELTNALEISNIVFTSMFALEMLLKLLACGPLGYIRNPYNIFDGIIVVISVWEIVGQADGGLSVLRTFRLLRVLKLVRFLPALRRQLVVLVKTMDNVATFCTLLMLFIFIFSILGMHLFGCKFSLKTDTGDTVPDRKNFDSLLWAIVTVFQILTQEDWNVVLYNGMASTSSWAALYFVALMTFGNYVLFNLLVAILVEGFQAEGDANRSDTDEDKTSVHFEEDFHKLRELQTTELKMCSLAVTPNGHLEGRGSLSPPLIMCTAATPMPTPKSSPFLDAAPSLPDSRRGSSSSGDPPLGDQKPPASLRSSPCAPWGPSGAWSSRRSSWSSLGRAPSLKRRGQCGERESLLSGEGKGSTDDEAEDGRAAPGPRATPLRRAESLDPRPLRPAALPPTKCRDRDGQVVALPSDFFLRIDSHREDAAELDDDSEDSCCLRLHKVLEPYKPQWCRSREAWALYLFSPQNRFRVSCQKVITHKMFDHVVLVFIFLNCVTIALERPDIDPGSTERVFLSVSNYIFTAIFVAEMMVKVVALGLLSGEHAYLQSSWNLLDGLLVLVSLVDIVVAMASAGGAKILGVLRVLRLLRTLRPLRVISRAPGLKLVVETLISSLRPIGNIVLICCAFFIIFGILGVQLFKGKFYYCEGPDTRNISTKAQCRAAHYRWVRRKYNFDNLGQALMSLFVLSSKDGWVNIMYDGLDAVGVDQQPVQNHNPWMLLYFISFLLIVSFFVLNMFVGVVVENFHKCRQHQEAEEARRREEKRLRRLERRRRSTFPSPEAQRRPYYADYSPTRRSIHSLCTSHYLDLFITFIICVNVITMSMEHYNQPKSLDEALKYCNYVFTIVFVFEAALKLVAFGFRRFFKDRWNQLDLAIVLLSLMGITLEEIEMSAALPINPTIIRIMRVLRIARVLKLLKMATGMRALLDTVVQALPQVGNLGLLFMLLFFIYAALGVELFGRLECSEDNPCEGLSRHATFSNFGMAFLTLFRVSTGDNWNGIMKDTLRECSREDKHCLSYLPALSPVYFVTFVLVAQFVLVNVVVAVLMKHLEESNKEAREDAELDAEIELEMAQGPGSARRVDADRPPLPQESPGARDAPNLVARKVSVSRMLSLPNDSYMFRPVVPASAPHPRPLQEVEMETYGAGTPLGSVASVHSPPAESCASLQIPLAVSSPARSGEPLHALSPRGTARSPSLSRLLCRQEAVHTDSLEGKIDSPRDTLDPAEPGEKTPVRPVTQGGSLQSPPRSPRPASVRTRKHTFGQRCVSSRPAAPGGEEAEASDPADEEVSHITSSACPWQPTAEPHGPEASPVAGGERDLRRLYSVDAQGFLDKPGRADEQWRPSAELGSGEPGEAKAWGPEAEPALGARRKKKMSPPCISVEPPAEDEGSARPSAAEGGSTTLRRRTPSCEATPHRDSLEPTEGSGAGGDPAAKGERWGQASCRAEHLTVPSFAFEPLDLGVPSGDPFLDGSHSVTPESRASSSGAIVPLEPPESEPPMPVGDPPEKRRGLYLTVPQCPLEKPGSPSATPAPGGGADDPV

In the case of `CC(C)(C)NC(=O)CNC1(C)CCC(F)(S(=O)(=O)c2cccc(C(F)(F)F)c2)CC1` (stereo not drawn) [Compound 98, N-tert-butyl-2-(4-fluoro-1-methyl-4-(3-(trifluoromethyl)phenylsulfonyl)cyclohexylamino)acetamide], the results for the concentration for half-maximal inhibition (IC50) in experiment [1], in experiment [2] and in experiment [3] were more than 10000 nM, more than 10000 nM and 680 nM, respectively.
In the case of `CC(C)(C)S(=O)(=O)c1ccsc1C(=O)N[C@H]1CC[C@@H](S(=O)(=O)c2cccc(C(F)(F)F)c2)CC1` [Compound 204, 3-(tert-butylsulfonyl)-N-((1S,4S)-4-(3-(trifluoromethyl)phenylsulfonyl)cyclohexyl)thiophene-2-carboxamide], the IC50 is 3550 nM in experiment [1], 6460 nM in experiment [2] and 210 nM in experiment [3].
Turning to `O=C(CN[C@H]1CC[C@@H](S(=O)(=O)c2cccc(C(F)(F)F)c2)CC1)NCC(F)(F)F` [Compound 48, N-(2,2,2-trifluoroethyl)-2-((1S,4S)-4-(3-(trifluoromethyl)phenylsulfonyl)cyclohexylamino)acetamide], the half-inhibitory concentration (IC50) in experiment [1] was determined as 1430 nM; in experiment [2], 2330 nM; in experiment [3] it was 1650 nM.
Taken in the same sequence, the figures for `O=C(Nc1ccc(Oc2ccc(C(F)(F)F)cn2)nc1)[C@H]1C[C@H](S(=O)(=O)c2cccc(C(F)(F)F)c2)C1` [Compound 400, (1R,3R)-3-(3-(trifluoromethyl)phenylsulfonyl)-N-(6-(5-(trifluoromethyl)pyridin-2-yloxy)pyridin-3-yl) cyclobutanecarboxamide] were more than 10000 nM, 5920 nM and 3830 nM.
Taken in the same sequence, the figures for `O=C(NC[C@H]1C[C@@H](S(=O)(=O)c2cccc(C(F)(F)F)c2)C1)c1cn2cc(C(F)(F)F)ccc2n1` [Compound 384, 6-(trifluoromethyl)-N-(((1S,3S)-3-(3-(trifluoromethyl)phenylsulfonyl)cyclobutyl)methyl)imidazo[l,2-a]pyridine-2-carboxamide] were more than 10000 nM, 4740 nM and 960 nM.
`O=C(CN[C@H]1CC[C@H](CS(=O)(=O)c2cccc(C(F)(F)F)c2)CC1)NCC(F)(F)F` [Compound 113, N-(2,2,2-trifluoroethyl)-2-((1R,4R)-4-((3-(trifluoromethyl)phenylsulfonyl)methyl)cyclohexylamino)acetamide]: the IC50 was more than 10000 nM in experiment [1], 5350 nM in experiment [2] and 130 nM in experiment [3].
Take `CC(C)(C)OC(=O)N[C@H]1CC[C@@H](S(=O)(=O)c2cccc(C(F)(F)F)c2)CC1` [Compound 96, tert-butyl(1S,4S)-4-(3-(trifluoromethyl)phenylsulfonyl) cyclohexylcarbamate]: the IC50 is more than 10000 nM in experiment [1], 3820 nM in experiment [2] and 430 nM in experiment [3].
On to `O=C(N[C@H]1CC[C@@](F)(S(=O)(=O)c2cccc(C(F)(F)F)c2)CC1)c1cnc(C(F)(F)F)nc1` [Compound 261, N-((1S,4S)-4-fluoro-4-(3-(trifluoromethyl)phenylsulfonyl)cyclohexyl)-2-(trifluoromethyl)pyrimidine-5-carboxamide], for which the values for the half-inhibitory concentration (IC50) in experiment [1], in experiment [2] and in experiment [3] were more than 10000 nM, 7180 nM and 1720 nM, respectively.
As to `O=C(N[C@H]1CC[C@@H](S(=O)(=O)c2cccc(C(F)(F)F)c2)CC1)c1ccc(F)c(Cl)c1` [Compound 131, 3-chloro-4-fluoro-N-((1S,4S)-4-(3-(trifluoromethyl)phenylsulfonyl)cyclohexyl)benzamide], the results for the IC50 in experiment [1], in experiment [2] and in experiment [3] were 160 nM, 610 nM and 160 nM, respectively.
With `O=C(N[C@H]1CC[C@@](F)(S(=O)(=O)c2cccc(C(F)(F)F)c2)CC1)[C@H]1C[C@@H]1c1ccccc1` [Compound 304, (1S,2S)-N-((1S,4R)-4-fluoro-4-(3-(trifluoromethyl)phenylsulfonyl)cyclohexyl)-2-phenylcyclopropane carboxamide], the figures for the IC50 in experiment [1], in experiment [2] and in experiment [3] were 1550 nM, 2440 nM and 230 nM, respectively.
Taken in the same sequence, the figures for `CC1(S(=O)(=O)c2cccc(C(F)(F)F)c2)CCC(NC(=O)c2cc(F)cc(Cl)c2)CC1` (stereo not drawn) [Compound 19, 3-chloro-5-fluoro-N-(4-methyl-4-(3-(trifluoromethyl)phenylsulfonyl)cyclohexyl)benzamide] were 5240 nM, 3020 nM and 60 nM.
In the same order, the values of `O=C(N[C@H]1CC[C@H](S(=O)(=O)c2cccc(C(F)(F)F)c2)CC1)c1cncc(C(F)(F)F)c1` [Compound 190, 5-(trifluoromethyl)-N-((1R,4R)-4-(3-(trifluoromethyl)phenylsulfonyl)cyclohexyl)nicotinamide] are 5560 nM, 2530 nM and 600 nM.
In the same order, the values of `CN(C(=O)CN[C@H]1CC[C@@H](S(=O)(=O)c2cccc(C(F)(F)F)c2)CC1)C(C)(C)C` [Compound 50, N-tert-butyl-N-methyl-2-((1S,4S)-4-(3-(trifluoromethyl)phenylsulfonyl)cyclohexylamino)acetamide] are more than 10000 nM, more than 10000 nM and 90 nM.
For the compound `O=S(=O)(N[C@H]1CC[C@@](F)(S(=O)(=O)c2cccc(C(F)(F)F)c2)CC1)c1ccc(OC(F)(F)F)cc1` [Compound 302, N-((1S,4S)-4-fluoro-4-(3-(trifluoromethyl)phenylsultonyl)cyclohexyl)-4-(trifluoromethoxy) benzenesulfonamide], the half-maximal inhibitory concentration (IC50) came to 970 nM in experiment [1], 850 nM in experiment [2] and 400 nM in experiment [3].
Taken in the same sequence, the figures for `O=C(N[C@H]1CC[C@@](F)(S(=O)(=O)c2cccc(C(F)(F)F)c2)CC1)c1cnccc1C(F)(F)F` [Compound 267] were 2630 nM, 490 nM and 790 nM.
Taken in the same sequence, the figures for “5-(trifluoromethyl)-N-((1R,4R)-4- ((3- (trifluoromethyl)phenylsulfonyl) methyl)cyclohexyl)picolinamide [Compound 104]” were more than 10000 nM, more than 10000 nM and 840 nM.
On to `O=C(N[C@H]1CC[C@@H](S(=O)(=O)c2cccc(C(F)(F)F)c2)CC1)c1cc(C(F)(F)F)ccn1` [Compound 42, 4-(trifluoromethyl)-N-((1S,4S)-4-(3-(trifluoromethyl)phenylsulfonyl)cyclohexyl)picolinamide], for which the half-inhibitory concentration (IC50) in experiment [1] is 1510 nM; in experiment [2], 2860 nM; in experiment [3], 480 nM.
In the same order, the values of `CC(C)(C)OC(=O)N[C@H]1CC[C@H](S(=O)(=O)c2cccc(C(F)(F)F)c2)CC1` [Compound 95, tert-butyl(1R,4R)-4-(3-(trifluoromethyl)phenylsulfonyl) cyclohexylcarbamate] are 6970 nM, 2150 nM and 1640 nM.
In the same order, the values of `O=S(=O)(N[C@H]1CC[C@@](F)(S(=O)(=O)c2cccc(C(F)(F)F)c2)CC1)c1ccccc1C(F)(F)F` [Compound 299, N-((1S,4S)-4-fluoro-4-(3-(trifluoromethyl)phenylsulfonyl)cyclohexyl)-2-(trifluoromethyl) benzenesulfonamide] are 640 nM, 210 nM and 730 nM.
In the same order, the values of `O=C(N[C@H]1CC[C@@](F)(S(=O)(=O)c2cccc(C(F)(F)F)c2)CC1)c1ccc(OCC(F)(F)F)nc1` [Compound 249, N-((1S,4S)-4-fluoro-4-(3-(trifluoromethyl)phenylsulfonyl)cyclohexyl)-6-(2,2,2-trifluoroethoxy)nicotinamide] are 2650 nM, 360 nM and 260 nM.
`CS(=O)(=O)c1nc(C(F)(F)F)ccc1C(=O)N[C@H]1CC[C@@](F)(S(=O)(=O)c2cccc(OC(F)(F)F)c2)CC1` [Compound 257]: the half-maximal inhibitory concentration (IC50) in experiment [1] came to 6900 nM; in experiment [2] it was 9020 nM; in experiment [3] it was 680 nM.
With `O=C(N[C@H]1CC[C@](F)(S(=O)(=O)c2cccc(C(F)(F)F)c2)CC1)c1cc(C(F)(F)F)ccn1` [Compound 79, N-((1R,4R)-4-fluoro-4-(3-(trifluoromethyl)phenylsulfonyl)cyclohexyl)-4-(trifluoromethyl)picolinamide], the half-maximal inhibitory concentration (IC50) worked out at 1190 nM in experiment [1], 440 nM in experiment [2] and 630 nM in experiment [3].
Turning to `O=S(=O)(N[C@H]1CC[C@@](F)(S(=O)(=O)c2cccc(C(F)(F)F)c2)CC1)c1ccc(C(F)(F)F)cc1Cl` [Compound 297, 2-chloro-N-((1S,4S)-4-fluoro-4-(3-(trifluoromethyl)phenylsulfonyl)cyclohexyl)-4-(trifluoromethyl) benzenesulfonamide], the IC50 in experiment [1] worked out at 850 nM; in experiment [2], 300 nM; in experiment [3], 720 nM.
For the compound `O=C(N[C@H]1CC[C@@](F)(S(=O)(=O)c2cccc(C(F)(F)F)c2)CC1)[C@@H]1CC[C@H](c2ccccc2)N1` [Compound 289], the IC50 turned out to be 1400 nM in experiment [1], 1040 nM in experiment [2] and 540 nM in experiment [3].
In the same order, the values of `CS(=O)(=O)c1cc(Cl)ccc1C(=O)N[C@H]1CC[C@@](F)(S(=O)(=O)c2cccc(C(F)(F)F)c2)CC1` [Compound 262, 4-chloro-N-((1S,4S)-4-fluoro-4-(3-(trifluoromethyl)phenylsulfonyl)cyclohexyl)-2-(methylsulfonyl)benzamide] are 2890 nM, 1470 nM and 250 nM.
